Experimental data published in patent US6465505B1, “Benzyl-substituted benzimidazoles” (AstraZeneca AB, priority 1996, dated 2002).
pIC50: −log10 of the molar value.

Test system: acid secretion in isolated rabbit gastric glands
Experiment: Acid secretion inhibition in isolated rabbit gastric glands
Type: cell-based
Conditions: Oryctolagus cuniculus, in vitro, read-out: IC50, inhibiting effect on acid secretion in vitro
Procedure: Acid Secretion Inhibition in Isolated Rabbit Gastric Glands
Inhibiting effect on acid secretion in vitro in isolated rabbit gastric glands was measured as described by Berglindh et al. (1976) Acta Physiol. Scand. 97, 401-414.

pIC50 | Structure (SMILES)
4.89 | Cc1nc2c(NCc3ccccc3)cccc2[nH]1 [Compound (A), 4-benzylamino-2-methylbenzimidazole]
5.11 | Cc1nc2c(OCc3ccccc3)cccc2[nH]1 [Compound (B), 4-benzyloxy-2-methyl benzimidazole]
